According to the NIST ThermoML archive (doi:10.1016/j.fluid.2007.09.023):

Test: molar heat capacity at constant volume
Conditions: Vacuum adiabatic calorimetry

Cc1ccccc1 [toluene]
Fluid (supercritical or subcritical phases)
Conditions | molar heat capacity at constant volume [J/K/mol]
386.9 K, Mass density=777.8 kg/m3 | 147.79
387.48 K, Mass density=777.8 kg/m3 | 147.7
387.84 K, Mass density=777.8 kg/m3 | 146.41
388.65 K, Mass density=777.8 kg/m3 | 146.96
392.83 K, Mass density=777.8 kg/m3 | 145.67
393.6 K, Mass density=777.8 kg/m3 | 144.01
399.34 K, Mass density=777.8 kg/m3 | 146.68
411.33 K, Mass density=777.8 kg/m3 | 148.9
413.55 K, Mass density=777.8 kg/m3 | 149.08
545.3 K, Mass density=555.25 kg/m3 | 189.99
545.51 K, Mass density=555.25 kg/m3 | 189.07
545.84 K, Mass density=555.25 kg/m3 | 188.79
545.93 K, Mass density=555.25 kg/m3 | 189.44
548.72 K, Mass density=555.25 kg/m3 | 187.41
549.32 K, Mass density=555.25 kg/m3 | 189.25
550.41 K, Mass density=555.25 kg/m3 | 188.52
589.54 K, Mass density=214.64 kg/m3 | 349.57
589.66 K, Mass density=214.64 kg/m3 | 307.47
589.72 K, Mass density=214.64 kg/m3 | 299.45
589.84 K, Mass density=214.64 kg/m3 | 280.47
590.03 K, Mass density=214.64 kg/m3 | 271.9
590.09 K, Mass density=214.64 kg/m3 | 264.9
590.51 K, Mass density=214.64 kg/m3 | 250.8
590.58 K, Mass density=214.64 kg/m3 | 252.92

molar heat capacity at constant volume [J/K/mol]
Conditions | 386.9 K | 545.3 K | 589.54 K | 591.72 K | 591.84 K | 591.85 K | 591.87 K | 591.88 K
Gas | – | – | 349.57 | 385.6 | 425.4 | – | – | –
Liquid | 147.79 | 189.99 | – | – | – | 331.51 | 422.18 | 442.26
